Tests used:
[1] = target: Cathepsin S (Homo sapiens, UniProt P25774); assay: Inhibition of human cathepsin S
[2] = target: T1, Cathepsin K (Homo sapiens, UniProt P43235); assay: Inhibition of human cathepsin K
T1 sequence (P43235 whole entry): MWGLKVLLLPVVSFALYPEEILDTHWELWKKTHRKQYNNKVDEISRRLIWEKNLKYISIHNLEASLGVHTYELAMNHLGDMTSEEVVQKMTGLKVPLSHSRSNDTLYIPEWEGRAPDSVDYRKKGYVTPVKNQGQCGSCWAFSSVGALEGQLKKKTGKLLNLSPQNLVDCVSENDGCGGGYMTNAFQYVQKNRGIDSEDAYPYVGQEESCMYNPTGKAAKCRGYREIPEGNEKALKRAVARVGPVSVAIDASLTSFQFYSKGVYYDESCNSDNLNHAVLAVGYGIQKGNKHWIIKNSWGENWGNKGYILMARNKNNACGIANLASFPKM

[3] = target: Cathepsin B (Homo sapiens, UniProt P07858); assay: Inhibition of human cathepsin B
[4] = target: Procathepsin L (Homo sapiens, UniProt P07711); assay: Inhibition of human cathepsin L
[5] = target: Cathepsin S (Mus musculus, UniProt O70370); assay: Inhibition of mouse recombinant cathepsin S
[6] = target: T2, Cathepsin K (Mus musculus, UniProt P55097); assay: Inhibition of mouse recombinant cathepsin K
T2 sequence (P55097 whole entry): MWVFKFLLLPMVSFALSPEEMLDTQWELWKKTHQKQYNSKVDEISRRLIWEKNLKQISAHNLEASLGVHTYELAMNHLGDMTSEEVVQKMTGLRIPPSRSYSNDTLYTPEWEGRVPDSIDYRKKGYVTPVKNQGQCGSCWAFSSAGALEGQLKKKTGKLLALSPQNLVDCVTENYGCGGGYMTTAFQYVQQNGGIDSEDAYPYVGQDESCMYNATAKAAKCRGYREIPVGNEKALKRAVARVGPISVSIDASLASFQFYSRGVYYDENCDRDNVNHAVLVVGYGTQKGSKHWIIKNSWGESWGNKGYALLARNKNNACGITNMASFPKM

[7] = target: Cathepsin B (Mus musculus, UniProt P10605); assay: Inhibition of mouse recombinant cathepsin B
[8] = target: Cathepsin S (Rattus norvegicus, UniProt Q02765); assay: Inhibition of rat spleen cathepsin S; format: tissue-based
[9] = target: Cathepsin B (Rattus norvegicus, UniProt P00787); assay: Inhibition of rat liver lysosomal cathepsin B
[10] = target: T3, Procathepsin L (Mus musculus, UniProt P06797); assay: Inhibition of mouse recombinant cathepsin L
T3 sequence (P06797 whole entry): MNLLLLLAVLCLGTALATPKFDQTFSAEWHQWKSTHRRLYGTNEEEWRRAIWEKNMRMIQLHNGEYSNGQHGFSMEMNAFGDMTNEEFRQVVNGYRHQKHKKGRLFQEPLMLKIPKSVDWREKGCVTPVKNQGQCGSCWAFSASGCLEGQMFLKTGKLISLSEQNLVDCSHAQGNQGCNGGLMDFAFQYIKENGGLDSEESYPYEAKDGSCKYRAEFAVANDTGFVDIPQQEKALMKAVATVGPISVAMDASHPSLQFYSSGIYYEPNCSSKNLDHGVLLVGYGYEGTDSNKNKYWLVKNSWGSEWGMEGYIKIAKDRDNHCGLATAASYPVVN

[11] = target: T4, Procathepsin L (Rattus norvegicus, UniProt P07154); assay: Inhibition of rat liver lysosomal cathepsin L
T4 sequence (P07154 whole entry): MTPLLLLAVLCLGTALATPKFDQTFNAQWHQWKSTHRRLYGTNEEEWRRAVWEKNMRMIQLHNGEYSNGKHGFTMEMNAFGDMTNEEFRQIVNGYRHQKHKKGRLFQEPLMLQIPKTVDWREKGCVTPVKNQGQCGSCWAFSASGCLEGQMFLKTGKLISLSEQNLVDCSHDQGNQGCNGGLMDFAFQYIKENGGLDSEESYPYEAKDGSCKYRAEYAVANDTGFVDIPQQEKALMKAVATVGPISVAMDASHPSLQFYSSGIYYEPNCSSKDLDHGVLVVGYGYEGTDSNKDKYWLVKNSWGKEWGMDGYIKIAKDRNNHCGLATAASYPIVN

[12] = Bioavailability in Sprague-Dawley rat; format: ADME, organism-based; settings: in vivo
[13] = Cmax in Sprague-Dawley rat; format: ADME, organism-based; settings: in vivo
[14] = Half life in Sprague-Dawley rat; format: ADME, organism-based; settings: in vivo
[15] = test system: Hepatocyte; assay: Metabolic stability in rat hepatocytes after 2 hrs; format: ADME, cell-based
[16] = Inhibition of antigen presentation in mouse B cells; format: functional, cell-based
[17] = Cmax in po dosed Sprague-Dawley rat administered in 1:1 inwitor/tween 80 solution; format: ADME, organism-based; set-up: route oral; settings: in vivo
[18] = test system: Rattus norvegicus; assay: Half life in po dosed Sprague-Dawley rat administered in 1:1 inwitor/tween 80 solution; format: ADME, organism-based; settings: in vivo
[19] = Bioavailability in po dosed Sprague-Dawley rat administered in 1:1 inwitor/tween 80 solution; format: ADME, organism-based; settings: in vivo

Chain of Cathepsin S (Mus musculus, UniProt O70370) (O70370 whole entry): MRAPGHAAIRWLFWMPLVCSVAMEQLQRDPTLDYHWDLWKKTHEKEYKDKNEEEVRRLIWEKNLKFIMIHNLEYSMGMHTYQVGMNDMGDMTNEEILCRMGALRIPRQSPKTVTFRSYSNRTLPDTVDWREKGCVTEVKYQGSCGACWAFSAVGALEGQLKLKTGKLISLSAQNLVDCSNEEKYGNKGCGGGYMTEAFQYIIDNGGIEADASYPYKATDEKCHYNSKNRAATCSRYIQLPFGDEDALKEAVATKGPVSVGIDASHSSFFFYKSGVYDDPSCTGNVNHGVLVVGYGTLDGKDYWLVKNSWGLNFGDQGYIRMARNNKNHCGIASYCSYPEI
Chain of Cathepsin S (Rattus norvegicus, UniProt Q02765) (Q02765 whole entry): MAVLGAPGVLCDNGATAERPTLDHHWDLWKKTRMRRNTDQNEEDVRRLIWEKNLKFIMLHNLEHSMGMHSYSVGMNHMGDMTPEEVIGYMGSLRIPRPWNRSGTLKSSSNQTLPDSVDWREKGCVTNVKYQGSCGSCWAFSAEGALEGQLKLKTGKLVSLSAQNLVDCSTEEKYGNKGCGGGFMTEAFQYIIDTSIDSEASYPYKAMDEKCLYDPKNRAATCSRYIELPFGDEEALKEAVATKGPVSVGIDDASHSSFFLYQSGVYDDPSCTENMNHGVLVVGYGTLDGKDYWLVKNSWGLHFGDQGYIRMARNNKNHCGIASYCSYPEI
Chain of Cathepsin B (Rattus norvegicus, UniProt P00787) (P00787 whole entry): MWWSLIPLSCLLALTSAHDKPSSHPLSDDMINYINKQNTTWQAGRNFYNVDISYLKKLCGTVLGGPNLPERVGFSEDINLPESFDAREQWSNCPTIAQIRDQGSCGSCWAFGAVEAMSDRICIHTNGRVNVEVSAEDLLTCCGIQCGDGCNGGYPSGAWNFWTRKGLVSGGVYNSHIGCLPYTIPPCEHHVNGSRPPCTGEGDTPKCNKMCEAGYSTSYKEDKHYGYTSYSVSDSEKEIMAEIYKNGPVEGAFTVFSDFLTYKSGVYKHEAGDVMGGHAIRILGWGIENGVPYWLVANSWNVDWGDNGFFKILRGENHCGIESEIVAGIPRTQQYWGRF
Chain of Procathepsin L (Homo sapiens, UniProt P07711) (P07711 whole entry): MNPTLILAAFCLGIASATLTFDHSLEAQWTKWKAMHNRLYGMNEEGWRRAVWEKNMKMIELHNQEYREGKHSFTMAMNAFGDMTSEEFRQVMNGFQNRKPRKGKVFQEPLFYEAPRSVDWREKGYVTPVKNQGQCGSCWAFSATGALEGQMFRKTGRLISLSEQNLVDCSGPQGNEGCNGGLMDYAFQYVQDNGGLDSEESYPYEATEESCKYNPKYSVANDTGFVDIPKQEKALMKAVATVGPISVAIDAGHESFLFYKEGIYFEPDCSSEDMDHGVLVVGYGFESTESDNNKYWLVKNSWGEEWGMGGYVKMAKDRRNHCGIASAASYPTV
Chain of Cathepsin B (Mus musculus, UniProt P10605) (P10605 whole entry): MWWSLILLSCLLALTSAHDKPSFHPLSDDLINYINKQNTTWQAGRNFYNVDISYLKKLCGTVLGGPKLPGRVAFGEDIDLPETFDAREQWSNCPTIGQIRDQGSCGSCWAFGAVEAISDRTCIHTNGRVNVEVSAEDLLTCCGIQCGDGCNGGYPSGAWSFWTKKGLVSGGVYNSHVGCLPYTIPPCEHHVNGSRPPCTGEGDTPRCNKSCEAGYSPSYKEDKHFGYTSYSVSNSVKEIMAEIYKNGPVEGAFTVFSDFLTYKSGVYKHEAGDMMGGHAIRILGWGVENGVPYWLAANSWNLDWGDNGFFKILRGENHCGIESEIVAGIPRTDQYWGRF
Chain of Cathepsin S (Homo sapiens, UniProt P25774) (P25774 whole entry): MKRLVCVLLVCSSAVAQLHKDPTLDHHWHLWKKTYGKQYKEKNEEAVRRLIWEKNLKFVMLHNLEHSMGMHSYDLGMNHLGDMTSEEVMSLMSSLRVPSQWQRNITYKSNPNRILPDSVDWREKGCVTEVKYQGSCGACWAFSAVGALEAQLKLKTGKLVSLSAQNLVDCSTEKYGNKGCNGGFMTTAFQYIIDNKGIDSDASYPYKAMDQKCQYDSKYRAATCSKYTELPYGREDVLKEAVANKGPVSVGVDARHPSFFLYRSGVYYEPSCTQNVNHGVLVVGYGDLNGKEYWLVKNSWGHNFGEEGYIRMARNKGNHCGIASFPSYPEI

SMILES | IC50 [1] [nM] | IC50 [2] [nM] | IC50 [3] [µM] | IC50 [4] [nM] | IC50 [5] [nM] | IC50 [6] [nM] | IC50 [7] [nM] | IC50 [8] [nM] | IC50 [9] [nM] | IC50 [10] [nM] | IC50 [11] [nM] | bioavailability [12] [%] | Cmax [13] [nM] | half-life [14] [min] | Stability [15] | IC50 [16] [nM] | Cmax [17] [nM] | t1/2 [18] [h] | bioavailability [19] [%]
CC(C)(c1ccc(F)cc1)S(=O)(=O)C[C@H](N[C@@H](c1ccc(F)cc1)C(F)(F)F)C(=O)NC1(C#N)CC1 | 627 | > 10000 | > 10 | > 10000 |  |  |  |  |  |  |  |  |  |  |  |  |  |  | 
N#CC1(NC(=O)[C@H](CS(=O)(=O)Cc2ccccc2-c2ccccc2)N[C@@H](c2ccc(F)cc2)C(F)(F)F)CC1 | 1.8 | > 10000 | 4.04 | > 10000 |  |  |  |  |  |  |  |  |  |  |  |  |  |  | 
N#CC1(NC(=O)[C@H](CS(=O)(=O)CC2CC2)N[C@@H](c2ccc(F)cc2)C(F)(F)F)CC1 | 0.5 | 2000 | 1 | 188 | 0.9 | > 10000 | 253 | 759 | 272 | 332 | 738 | 40 | 2800 | 228 |  |  |  |  | 
CS(=O)(=O)C[C@H](N[C@@H](c1ccc(Br)cc1)C(F)(F)F)C(=O)NC1(C#N)CC1 | 11 | 31 |  |  | 1.6 | 1030 | 69 | 1050 | 66 | 2220 | 1280 | 40 | 3300 | 660 | Stable |  |  |  | 
N#CC1(NC(=O)[C@H](CS(=O)(=O)c2nc3ccccc3s2)N[C@@H](c2ccccc2)C(F)(F)F)CC1 | 1.3 | 825 | 2.97 | 114 |  |  |  |  |  |  |  |  |  |  |  |  |  |  | 
N#CC1(NC(=O)[C@H](CS(=O)(=O)Cc2c(F)cccc2F)N[C@@H](c2ccc(F)cc2)C(F)(F)F)CC1 | 0.7 | > 10000 | > 10 | 249 |  |  |  |  |  |  |  |  |  |  |  |  |  |  | 
CS(=O)(=O)C[C@H](N[C@@H](c1cccc(F)c1)C(F)(F)F)C(=O)NC1(C#N)CC1 | 6.4 | 314 | 3.85 | 911 |  |  |  |  |  |  |  |  |  |  |  |  |  |  | 
CC(C)C[C@@H](NC(=O)N1CCOCC1)C(=O)N[C@@H](/C=C/S(=O)(=O)c1ccccc1)CCc1ccccc1 | 1.2 | 6.2 | 4.5 |  | 0.5 | 388 | 1280 | 1.7 | 735 |  | 4.1 |  |  |  |  | 1.2 |  |  | 
CS(=O)(=O)C[C@H](N[C@@H](c1ccc(-c2ccc(F)cc2)cc1)C(F)(F)F)C(=O)NC1(C#N)CC1 | 10 | 5.3 | 0.17 | > 10000 |  |  |  |  |  |  |  |  |  |  |  |  |  |  | 
CS(=O)(=O)C[C@H](N[C@@H](c1ccccc1)C(F)(F)F)C(=O)NC1(C#N)CC1 | 2.5 | 141 | 1.98 | 1040 |  |  |  |  |  |  |  |  |  |  |  |  |  |  | 
C[S+]([O-])C[C@H](N[C@@H](c1ccc(Br)cc1)C(F)(F)F)C(=O)NC1(C#N)CC1 (stereo partly drawn) | 2170 | 639 | 8.03 | > 10000 |  |  |  |  |  |  |  |  |  |  |  |  |  |  | 
CC(C)CS(=O)(=O)C[C@H](N[C@@H](c1ccc(F)cc1)C(F)(F)F)C(=O)NC1(C#N)CC1 | 0.4 | 3060 | 0.337 | 132 |  |  |  |  |  |  |  | 5 | 140 | 96 |  |  |  |  | 
N#CC1(NC(=O)[C@H](CS(=O)(=O)Cc2ccc(F)cc2)N[C@@H](c2ccccc2)C(F)(F)F)CC1 | 0.5 | > 10000 | 2.78 | 86 |  |  |  |  |  |  |  |  |  |  |  |  |  |  | 
N#CC1(NC(=O)[C@H](CS(=O)(=O)c2nccs2)N[C@@H](c2ccccc2)C(F)(F)F)CC1 | 5 | 376 | 3.61 | 181 |  |  |  |  |  |  |  |  |  |  |  |  |  |  | 
N#CC1(NC(=O)[C@H](CS(=O)(=O)c2ccc(Br)cc2)N[C@@H](c2ccccc2)C(F)(F)F)CC1 | 0.3 | 290 | 3.45 | 15 | 0.2 | 1320 | 1750 | 66 | 1810 | 39 | 72 |  |  |  |  |  |  |  | 
N#CC1(NC(=O)[C@H](CS(=O)(=O)c2ccc(Cl)c(Cl)c2)N[C@@H](c2ccccc2)C(F)(F)F)CC1 | 0.2 | 314 | 8.51 | 24 | < 0.2 | 1460 | 3020 | 15 | 5690 | 59 | 48 | 9 | 88 | 102 |  |  | 660 | 1.7 | 30
CSC[C@H](N[C@@H](c1ccc(Br)cc1)C(F)(F)F)C(=O)NC1(C#N)CC1 | 80 | 5 | 0.417 | 456 |  |  |  |  |  |  |  |  |  |  |  |  |  |  | 
CC(C)C[C@H](N[C@@H](c1ccc(-c2ccc(S(C)(=O)=O)cc2)cc1)C(F)(F)F)C(=O)NCC#N |  | 0.2 |  |  | 254 | 43 | 540 | 2440 | 925 | 254 | 90 |  |  |  |  | 4810 |  |  | 
N#CC1(NC(=O)[C@H](CS(=O)(=O)c2ccc(F)cc2)N[C@@H](c2ccc(F)cc2)C(F)(F)F)CC1 | 0.4 | 305 | 7.28 | 22 |  |  |  |  |  |  |  |  |  |  |  |  |  |  | 
N#CC1(NC(=O)[C@H](CS(=O)(=O)Cc2cccc(F)c2F)N[C@@H](c2ccccc2)C(F)(F)F)CC1 | 0.3 | > 10000 | 1.84 | 105 |  |  |  |  |  |  |  |  |  |  |  |  |  |  | 
N#CC1(NC(=O)[C@H](CS(=O)(=O)c2cccc(Br)c2)N[C@@H](c2ccccc2)C(F)(F)F)CC1 | 0.2 | 269 | 6.63 | 23 | < 0.2 | 2550 | 4010 | 44 | 4700 | 90 | 132 |  |  |  |  |  |  |  | 
CC(C)C[C@H](N[C@@H](c1ccc(-c2ccc(S(C)(=O)=O)cc2)cc1)C(F)(F)F)C(=O)NC1(C#N)CC1 | 265 | 0.3 | 7.74 | 456 |  |  |  |  |  |  |  |  |  |  |  |  |  |  | 
N#CC1(NC(=O)[C@H](CS(=O)(=O)c2ccc(Cl)c(Cl)c2)N[C@@H](c2ccc(F)cc2)C(F)(F)F)CC1 | 0.2 | 691 | 4.81 | 41 |  |  |  |  |  |  |  |  |  |  |  |  | 250 | 1.2 | 35
N#CC1(NC(=O)[C@H](CS(=O)(=O)CC2CC2)N[C@@H](c2ccccc2)C(F)(F)F)CC1 | 0.6 | 555 | 0.287 | 68 |  |  |  |  |  |  |  |  |  |  |  |  |  |  | 
N#CC1(NC(=O)[C@H](CS(=O)(=O)Cc2cccc(F)c2F)N[C@@H](c2ccc(F)cc2)C(F)(F)F)CC1 | 0.3 | > 10000 | 1.32 | 121 | 0.8 | > 10000 | 384 | 21 | 384 | 662 | 399 | 3 | 46 | 72 |  |  |  |  | 

— ChEMBL document CHEMBL1140679, “The identification of potent, selective, and bioavailable cathepsin S inhibitors” (Bioorg Med Chem Lett, 2007)
